Results: article PMC11748689, “Pharmacological and structural understanding of the Trypanosoma cruzi proteasome provides key insights for developing site-specific inhibitors” (The Journal of Biological Chemistry, 2024)

Legend:
[1] = biological target: native T. cruzi proteasome (caspase-like activity, β1) (Trypanosoma cruzi, UniProt V5BHX1); experiment: Caspase-like activity assay (Proteasome-Glo), native T. cruzi proteasome; format: biochemical; settings: mean ± SD, N = 3; read-out: pIC50, Caspase Assay, Native (converted)
Procedure: (§1) Chymotrypsin-, trypsin-, and caspase-like activity assays were performed using a commercially available Proteasome-Glo 3-substrate system assay kit (catalog number G8532) (Promega Corporation) according to the manufacturers protocols and as previously described ([24]).
(§2) Prior to running assays, Proteasome-Glo buffer was used to reconstitute the luciferin detection reagent (containing a recombinant thermostable luciferase enzyme). The resuspended luciferin detection reagent was then mixed with Proteasome-Glo chymotrypsin-, trypsin- or caspase-like substrates (either 40 μM suc-Leu-Leu-Val-Tyr-aminoluciferin, 30 μM Z-Leu-Arg-Arg-aminoluciferin (Z is benzyloxycarbonyl) or 40 μM Z-Nle-Pro-Nle-Asp-aminoluciferin respectively (these concentrations represent 2x final assay concentrations)). These substrate mixtures were allowed to incubate at room temperature for 60 min prior to use to allow the removal of any contaminating free aminoluciferin.
(§3) When proteasome inhibitors were to be screened in the chymotrypsin, trypsin, and caspase assays, test compounds were dispensed into assay wells using an ECHO 550 acoustic dispenser (Labcyte) (final DMSO concentration 1%). Compounds were tested in either a 10-point concentration series (30 μM top final assay concentration, 1 in 3 dilution series) or a 12-point concentration series (30 μM top final assay concentration, 1 in 2.5 dilution series).
(§4) Proteasome assays were then performed as described above using Promega Proteasome-Glo 3-substrate system assay kit. […] Diluted proteasome (4 μl) was added to assay plates using an electronic multichannel pipette (Integra Biosciences Ltd) and the proteasome incubated with compound for 60 min at room temperature.
(§5) Following the 60 min incubation of proteasome and compounds, assays were initiated with the addition of 4 μl of a substrate mix (containing substrate and the luciferin detection reagent) using an electronic multichannel pipette. Final assay concentrations of substrates used were either 20 μM Suc-Leu-Leu-Val-Tyr-aminoluciferin, 15 μM Z-Leu-Arg-Arg-aminoluciferin, or 20 μM Z-Nle-Pro-Nle-Asp-aminoluciferin for chymotrypsin-, trypsin-, or caspase-like activity, respectively. Following a further 60 min assay incubation, luminescence was read using an EnVision 2102 Multilabel Reader (PerkinElmer, Inc) with 0.2 s per well reading time.
(§6) All data processing was performed using Microsoft Excel for Microsoft 365 software.
(§7) Nonlinear dose-response curve fitting was carried out using the Microsoft Excel add-in, XLfit (IDBS). Percentage inhibition data were either fitted to a standard 4-parameter logistic fit model (XLfit model 205; Equation 2) or a biphasic model (either XLfit model 300; Equation 3 or a custom biphasic model; Equation 4 (used in cases where the top and/or bottom parameters deviated from 100%/0% inhibition)).(2) y=A+(B−A)/1+(C/x)^D Where A = % inhibition at bottom, B = % inhibition at top, C = IC50, D = slope, x = inhibitor concentration and y = % inhibition.(3) y=(A/(1+10^(C−log(x))∗B))+((100−A)/(1+10^(D−log(x))∗B)) With A = % inhibition at midplateau, B = slope, C = log(IC50^A), D = log(IC50^B)).
(§8) All IC50 data generated were converted to pIC50 using Equation 5.

[2] = biological target: recombinant WT T. cruzi proteasome (trypsin-like activity, β2) (Trypanosoma cruzi, UniProt V5BCU3); experiment: biochemical; format: biochemical; settings: for IC50: mean ± SD, N = 3, read-out: pIC50, Trypsin Assay, Wild-type (converted)
Procedure: as §1, §2, §3, §4, §5, §6, §7, §8

[3] = biological target: recombinant β4^R mutant T. cruzi proteasome (trypsin-like activity) (Trypanosoma cruzi, UniProt V5BCU3); format: biochemical; settings: for pIC50, Trypsin Assay, β4^R mutant: mean ± SD, N = 3
Procedure: Point mutations were created in individual subunits using overlapping PCR from the original templates using Polh and Tn7L primers outside the genes and suitable internal primers to introduce selected mutations. For Δβ1Δβ2, β1 Thr 55, and β2 Thr 67 were both mutated to Ala, the β4^R mutant was produced by mutating Phe 24 and Ile 29 to Leu and Met respectively in β4 subunit.
as §1, §2
Proteasome assays were carried out using 384-well, white, low-volume plates (catalog number 784904) (Greiner Bio-One) at room temperature (∼23 °C) in 8 μl reaction volumes. When activity checks were to be run in the presence or absence of a fixed concentration of proteasome inhibitor, 80 nL of the inhibitor (at a concentration 100x the required final assay concentration), or 80 nL dimethylsulfoxide (DMSO), were dispensed into assay plates using an Echo 550 acoustic dispenser (Labcyte).
A 1 in 2 dilution series of the various T. cruzi proteasome samples (native, recombinant WT, β4^R mutant, and Δβ1Δβ2 mutant) were produced in assay buffer (50 mM Tris–HCl, pH 7.5, 10 mM sucrose, 5 mM MgCl2, 1 mM DTT, 2 mM ATP, 150 mM NaCl, 1 mM EDTA, and 0.05 mg/ml bovine serum albumin). Subsequently, 4 μl of the various concentrations of diluted proteasome were added to assay plates using an electronic multichannel pipette (Integra Biosciences Ltd). When kinetic read activity checks were performed (Fig. 2), proteasome final assay concentrations used were 115 μg/ml, 115 μg/ml, and 230 μg/ml native proteasome (in the chymotrypsin, trypsin, and caspase assays, respectively), and 4.1 μg/ml, 3.4 μg/ml, or 1.4 μg/ml recombinant WT proteasome (in the chymotrypsin, trypsin, and caspase assays, respectively). When activity checks were to be run in the presence or absence of a proteasome inhibitor plates containing inhibitor or DMSO control were incubated with the relevant proteasome sample for 60 min at room temperature (this step was not included in activity check experiments where compounds were not used).
Following the 60 min incubation of proteasome and compound (if required), assays were initiated with the addition of 4 μl of substrate mix (containing substrate and the luciferin detection reagent) using an electronic multichannel pipette. Final assay concentrations of substrates used were either 20 μM Suc-Leu-Leu-Val-Tyr-aminoluciferin, 15 μM Z-Leu-Arg-Arg-aminoluciferin, or 20 μM Z-Nle-Pro-Nle-Asp-aminoluciferin for chymotrypsin-, trypsin- or caspase-like activity respectively.
Luminescence was read either kinetically or as an endpoint read using an EnVision 2102 Multilabel Reader (PerkinElmer, Inc) with 0.2 s per well reading time. When kinetic assays were run, luminescence was read every 5 min for 90 min. Endpoint assays were run for 60 min before luminescence was read. All data processing and linear fit analyses were performed using Microsoft Excel for Microsoft 365 software (Redmond, Washington; https://www.microsoft.com/).

[4] = system: intracellular T. cruzi Silvio X10/7 A1 amastigotes; experiment: Intracellular T. cruzi assay; format: cell-based; settings: Trypanosoma cruzi; 96 h compound treatment, Vero host cells; given as [mean pEC50, SD, N]; read-out: Mean pEC50 against intracellular T. cruzi parasites (converted)
Procedure: Potency against intracellular T. cruzi Silvio X10/7 A1 amastigotes was determined as described previously ([53]), with a sole modification that the compound treatment duration was 96 h instead of 72 h. Vero host cells were obtained from The European Collection of Authenticated Cell Cultures (cat. number 84113001) and tested for mycoplasma (negative). T. cruzi Silvio X10/7 A1 was obtained from Prof. Alan Fairlamb, and discrete typing unit confirmed by genotyping ([53]).

O=C(Nc1ccc(F)c(-c2cn3nc(-c4ccccc4)cnc3n2)c1)N1CCCC1 [DDD01012248] was tested, and the IC50 [1] was over 30.2 µM, the IC50 [2] was over 30.2 µM and the “inhibition of trypsin activity, β4^R mutant, fixed concentration” value ([3]; 1 μM compound (Fig. S4)) was “did not inhibit”. For the same molecule, the “pIC50, Trypsin Assay, β4^R mutant” value [3] was under 4.52 and the EC50 [4] was 0.02 µM.

O=C(Nc1ccc(F)c(C(=O)NC2CC2)c1)c1ccc(COc2ccccc2)o1 [DDD02091966, N-(3-(cyclopropylcarbamoyl)-4-fluorophenyl)-5-(phenoxymethyl)furan-2-carboxamide] was tested, and the IC50 [1] was over 30.2 µM, the IC50 [2] was over 30.2 µM and the “inhibition of the trypsin activity” value ([2]; native and recombinant T. cruzi proteasomes) was “no inhibition”. The “pIC50, Trypsin Assay, β4^R mutant” value [3] was under 4.52 and the EC50 [4] was 0.251 µM.
